Results on 1 compound are retold here after US20260294927A1, “KIF18A INHIBITOR COMPOUND, AND PHARMACEUTICAL COMPOSITION AND PREPARATION METHOD THEREFOR AND USE THEREOF” (CHANGCHUN GENESCIENCE PHARMACEUTICAL CO., LTD., priority 2022, published 2026).

For this assay, the system named is OVCAR-3 cells. Put plainly: imaging-based nuclear count analysis (NCA) in OVCAR-3 cells. Particulars: Homo sapiens, 96 h, 4 days, nuclear count with Hoechst 33342, 0.1% DMSO, low control 10 μM AM-5308. It is filed as cell-based. As to the method: Test name: imaging-based nuclear count analysis (NCA) in OVCAR-3 cells
• a) The final test concentrations of AM-5308:10000, 3333.3, 1111.1, 370.3, 123.4, 41.1, 13.7, 4.5, 1.5, 0.5 nM. • b) The final test concentrations of the test compound: 10000, 3333.3, 1111.1, 370.3, 123.4, 41.1, 13.7, 4.5, 1.5, 0.5 nM. • c) The cells were cultured in a 37° C., 5% CO2 incubator for 4 days. • d) DMSO concentration was 0.1%. Day 1 Seeding the Cells into a 384-Well Cell Culture Plate • a) When the cell confluence reached 80%-90%, the cells were treated. • b) The cells were resuspended in a medium and then counted and diluted at a desired density. • c) A cell suspension containing appropriate cells was added to the 384-well plate at 30 μL/well: 600 cells/well. […]
High-reading control wells: cells+30 nL DMSO; low-reading control wells: 10 μM AM-5308.
IC50 (nM) was calculated using GraphPad Prism 8 software and the effect-dose curves of the compound were plotted.

In general, IC50 refers to the point on the concentration scale where inhibition reaches its midpoint. A high value points to lower potency. On to `O=C(Nc1cccc2c1nc1n2C2CCC1CC2)c1ccc(NS(=O)(=O)CCO)cc1N1CCC2(CC1)CC2` [Compound 100, 4-(2-hydroxyethanesulfonylamino)-2-(6-azaspiro[2.5]octan-6-yl)-N-(1,2,3,4-tetrahydro-1,4-ethylbenzo[4,5]imidazo[1,2-a]pyridin-6-yl)benzamide], for which the concentration for half-maximal inhibition (IC50) was found to be 110 nM.
